Read-outs that look alike come from different tables or passages of the source.
Assays:
serum cholesterol [1] = assay: Testing of Normal Mice: serum cholesterol (modified Liebermann-Burchard), Example 7; format: in vivo, CF1 male mice; conditions: Mus musculus, 20 mg/kg/day ip
Method: Suspensions of Compounds Nos. 1-9 were prepared wherein the compounds were suspended in an aqueous 1% carboxymethylcelluose solution, homogenized and administered to CF1 male mice, each weighing approximately 25 grams, intraperitoneally on a daily basis for 16 days. The dosage was, with the exception of one compound, 20 milligrams of the active compound per kilogram of mouse weight per day. On days 9 and 16 blood was obtained by tail vein bleeding. The blood serum was separated by centrifugation for three minutes. Serum cholesterol levels were determined by a modification of the Liebermann-Burchard reaction. Serum was also collected on day 16 and the triglycerides content was determined by a commercial kit, BioDynamics/bnc Single Vile Colorimetric Method 348201. Each compound was tested on a group of six mice.
In addition to the above-described treated mice, untreated control groups of six mice were similarly tested on days 9 and 14 or 16 to determine their serum cholesterol and triglycerides blood levels. Table 5 reports the percent control, based on the serum cholesterol and serum triglyceride levels of the treated mice compared to the untreated controls. Table 5 also includes the standard deviation indicating the level of confidence of these numbers.
Example 7 was repeated substituting clofibrate, a compound used in the prior art to lower serum cholesterol and serum triglyceride levels. The clofibrate was administered as a suspension in an aqueous 1% solution of carboxymethylcellulose. However, unlike the compounds of the present invention which were administered at a dosage of 20 mg/kg day, ip, this compound was administered at the elevated concentration of 150 mg/kg day, ip.

Acetyl CoA Synthetase = biological target: T1, Acetyl CoA Synthetase (Mus musculus, UniProt Q9QXG4); assay: In vitro enzyme activity, liver homogenate: acetyl CoA synthetase; format: biochemical, CF1 male mouse; conditions: ± SD, N = 6, read-out: Percent Control, in vitro enzyme activity
T1 construct: 10% homogenates of CF1 male mouse liver; from tissue; host or cells: CF1 male mouse liver, 10% homogenate
T1 sequence (Q9QXG4 whole entry): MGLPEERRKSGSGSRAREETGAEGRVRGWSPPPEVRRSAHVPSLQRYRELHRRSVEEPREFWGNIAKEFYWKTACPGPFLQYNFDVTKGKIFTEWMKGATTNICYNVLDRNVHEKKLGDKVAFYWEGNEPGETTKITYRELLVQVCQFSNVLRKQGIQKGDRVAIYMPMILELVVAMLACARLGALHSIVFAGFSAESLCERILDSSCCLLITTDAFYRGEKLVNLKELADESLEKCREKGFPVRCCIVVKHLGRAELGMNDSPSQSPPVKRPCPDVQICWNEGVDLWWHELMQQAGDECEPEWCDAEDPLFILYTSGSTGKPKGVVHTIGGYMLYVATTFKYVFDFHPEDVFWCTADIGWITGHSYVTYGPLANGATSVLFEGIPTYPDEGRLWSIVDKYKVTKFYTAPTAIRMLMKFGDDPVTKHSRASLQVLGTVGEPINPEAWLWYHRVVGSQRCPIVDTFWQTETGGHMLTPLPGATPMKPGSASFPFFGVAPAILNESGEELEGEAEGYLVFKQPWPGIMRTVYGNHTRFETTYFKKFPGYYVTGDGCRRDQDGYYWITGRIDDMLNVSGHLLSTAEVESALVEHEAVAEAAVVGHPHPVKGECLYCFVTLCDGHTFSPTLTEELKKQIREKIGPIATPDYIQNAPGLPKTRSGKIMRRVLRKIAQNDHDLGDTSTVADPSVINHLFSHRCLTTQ
Method: (§1) In vitro enzymatic studies were undertaken using 10% homogenates of CF1 male mouse liver with […] of compound 3,4,5,6-dibenzohomopiperidine. In addition, in vivo enzymatic studies were performed, again using 10% liver homogenates (prepared in 0.25 M sucrose plus 0.001 M (ethylenedinitrilo)-tetraacetic acid, ph 7.25 from CF1 male mice obtained after administering 3,4,5,6-dibenzohomopiperidine for 16 days at a concentration ranging from 10 to 60 mg/kg/day, intraperitoneally.
(§2) The following enzyme activities were determined by following standard literature procedures: acetyl coenzyme synthetase; adenosine triphosphate dependent citrate lyase; mitochondrial citrate exchange; cholesterol/7 hydroxylase; 3-hydroxy-3-methyl-glutaryl coenzyme A reductase; acetyl coenzyme A carboxylase activity; fatty acid synthetase activity; sn-glycerol-3-phosphate acyl transferase activity; phosphatidate phosphohydrolase activity; cholesterol acyl transferase; and heparin activated hepatic lypoprotein lipase. Protein was determined for all enzyme assays by the Lowry et al. technique (J. Biol. Chem, 193, 265 (1951)).

serum triglycerides = assay: Testing of Normal Rats: serum triglycerides, Example 8; format: in vivo, Sprague Dawley male rats; conditions: oral 20 mg/kg/day
Method: In Example 8 a set of six Sprague Dawley male rats, each weighing approximately 350 grams, were orally treated with a concentration of 20 mg per kilogram of rat weight per day, again suspended in a 1% aqueous solution of CMC. The dosage was applied orally by an intubation needle. On days 9 and 16 serum cholesterol and serum triglycerides blood levels of the rats were measured utilizing th procedure of Example 7.
A control group of six similar Sprague Dawley male rats were untreated but tested on Days 9 and 16 in accordance with the tests administered to the treated rats. Table 6 reports the percent control based on the decrease in serum cholesterol and serum triglycerides of the treated rats compared to the levels measured in the untreated control group.

[2] = tested on: liver, small intestine and fecal materials; assay: Lipid Extraction Studies in Mice, Example 10; format: in vivo, CF1 male mice; conditions: ± SD
Method: The CF1 male mice that had been administered compound 3,4,5,6-dibenzohomopiperidine at four dosage levels as well as the control mice, were sacrificed and the liver, small intestine and fecal materials (24 hour collection) were removed, extracted and analyzed for cholesterol level, triglycerides level, neutral lipid content and phospholipid content. Table 8 reports the decrease in measured levels of these concentrations as a percentage of the level in the control. The control, it is noted, is always 100%.

[3] = tested on: Phosphatidate Phosphohyrolase; assay: In vitro enzyme activity, liver homogenate: phosphatidate phosphohydrolase; format: biochemical, CF1 male mouse; conditions: ± SD, N = 6
Method: as §1, §2

[4] = tested on: sn-Glycerol-3-Phosphate Acyl Transferase; assay: In vivo enzyme activity, liver of treated mice: sn-glycerol-3-phosphate acyl transferase; design: species or system CF1 male mice; conditions: 16 days, ± SD
Method: as §1, §2

serum cholesterol [5] = assay: Testing of Normal Mice: serum cholesterol (modified Liebermann-Burchard), Example 7; format: in vivo, CF1 male mice; conditions: Mus musculus; for response vs control in vivo at 10 mg/kg: 10 mg/kg/day ip; for response vs control in vivo at 40 mg/kg: 40 mg/kg/day ip; for response vs control in vivo at 60 mg/kg: 60 mg/kg/day ip
Liver = assay: Lipid Extraction Studies in Rats, Example 11: liver; format: in vivo, Sprague Dawley male rats; conditions: oral 20 mg/kg/day, fourteen days, ± SD
Small Intestine = assay: Lipid Extraction Studies in Rats, Example 11: small intestine; format: in vivo, Sprague Dawley male rats; conditions: oral 20 mg/kg/day, fourteen days, ± SD
[6] = 216 h, day 9, ± SD, read-out: Serum Cholesterol Control, % Day 9
[7] = 384 h, day 16, ± SD, read-out: Serum Cholesterol Control, % Day 16

`c1ccc2c(c1)CNCc1ccccc1-2` [Compound 3, 3,4,5,6-dibenzohomopiperidine] gave a response vs control in vivo at 20 mg/kg (serum cholesterol [1]; [6]) of 68 ± 4%, a response vs control in vivo at 20 mg/kg (serum cholesterol [1]; [7]) of 48 ± 4% and a remaining activity at 50 µM (Acetyl CoA Synthetase; 50 μM) of 112 ± 6%. For the same molecule, the remaining activity at 100 µM (Acetyl CoA Synthetase; 100 μM) was 100 ± 7%, the remaining activity at 200 µM (Acetyl CoA Synthetase; 200 μM) was 101 ± 6% and the “% Control Serum Triglycerides Day 9” value (serum triglycerides; day 9) was 54%. The “% Control Serum Triglycerides Day 16” value (serum triglycerides; day 16) was 54%, the “Cholesterol, concentration as a function of control” value (“Cholesterol, concentration” for short) ([2]; 20 mg/kg) was 55 ± 5% and the “Lipid wt, concentration as a function of control” value ([2]; 20 mg/kg) was 62 ± 6%. The “Neutral lipid, concentration as a function of control” value (shortened to “Neutral lipid, concentration”) ([2]; 20 mg/kg) was 50 ± 5%, the “Phospholipid, concentration as a function of control” value (from here on “Phospholipid, concentration”) ([2]; 20 mg/kg) was 100 ± 7% and the “Protein, concentration as a function of control” value (“Protein, concentration” below) ([2]; 20 mg/kg) was 95 ± 8%. The “Triglyceride, concentration as a function of control” value (from here on “Triglyceride, concentration”) ([2]; 20 mg/kg) was 37 ± 4%, the “Cholesterol, concentration” value ([2]; 40 mg/kg) was 114 ± 8% and the “Lipid wt, concentration as a function of control” value ([2]; 40 mg/kg) was 112 ± 9%. For the same molecule, the “Neutral lipid, concentration” value ([2]; 40 mg/kg) was 95 ± 6%, the “Phospholipid, concentration” value ([2]; 40 mg/kg) was 84 ± 7% and the “Protein, concentration” value ([2]; 40 mg/kg) was 103 ± 7%. The “Triglyceride, concentration” value ([2]; 40 mg/kg) was 70 ± 5%, the “Cholesterol, concentration” value ([2]; 60 mg/kg) was 99 ± 5% and the “Lipid wt, concentration as a function of control” value ([2]; 60 mg/kg) was 106 ± 8%. The “Neutral lipid, concentration” value ([2]; 60 mg/kg) was 90 ± 6%, the “Phospholipid, concentration” value ([2]; 60 mg/kg) was 91 ± 8% and the “Protein, concentration” value ([2]; 60 mg/kg) was 104 ± 8%. For the same molecule, the “Triglyceride, concentration” value ([2]; 60 mg/kg) was 74 ± 6%, the “Cholesterol, concentration” value ([2]; 10 g/kg (so in the source)) was 83 ± 6% and the “Lipid wt, concentration as a function of control” value ([2]; 10 g/kg (so in the source)) was 92 ± 7%. The “Neutral lipid, concentration” value ([2]; 10 g/kg (so in the source)) was 75 ± 6%, the “Phospholipid, concentration” value ([2]; 10 g/kg (so in the source)) was 78 ± 6% and the “Protein, concentration” value ([2]; 10 g/kg (so in the source)) was 98 ± 9%. For the same molecule, the “Triglyceride, concentration” value ([2]; 10 g/kg (so in the source)) was 48 ± 4%, the “Percent Control, in vitro enzyme activity” value ([3]; 50 μM) was 45 ± 4% and the “Percent Control, in vitro enzyme activity” value ([3]; 100 μM) was 44 ± 8%. For the same molecule, the “Percent Control, in vitro enzyme activity” value ([3]; 200 μM) was 50 ± 6%, the “Percent Control, in vivo enzyme activity” value ([4]; 10 mg/kg/day ip) was 45 ± 7% and the “Percent Control, in vivo enzyme activity” value ([4]; 20 mg/kg/day ip) was 68 ± 8%. For the same molecule, the “Percent Control, in vivo enzyme activity” value ([4]; 40 mg/kg/day ip) was 62 ± 6%, the “Percent Control, in vivo enzyme activity” value ([4]; 60 mg/kg/day ip) was 81 ± 6% and the response vs control in vivo at 10 mg/kg (serum cholesterol [5]; [6]) was 61 ± 5%. It also gave a response vs control in vivo at 40 mg/kg (serum cholesterol [5]; [6]) of 67 ± 6%, a response vs control in vivo at 60 mg/kg (serum cholesterol [5]; [6]) of 69 ± 5% and a response vs control in vivo at 10 mg/kg (serum cholesterol [5]; [7]) of 50 ± 5%. The response vs control in vivo at 40 mg/kg (serum cholesterol [5]; [7]) was 54 ± 4%, the response vs control in vivo at 60 mg/kg (serum cholesterol [5]; [7]) was 51 ± 4% and the “Cholesterol, concentration” value (Liver) was 65 ± 5%. For the same molecule, the “Mg Lipid Wt, concentration as a function of control” value (Liver) was 89 ± 7%, the “Neutral Lipids, concentration as a function of control” value (Liver) was 80 ± 5% and the “Phospholipids, concentration as a function of control” value (Liver) was 98 ± 9%. The “Protein, concentration” value (Liver) was 97 ± 7%, the “Triglycerides, concentration as a function of control” value (Liver) was 76 ± 6% and the “Cholesterol, concentration” value (Small Intestine) was 130 ± 6%. The “Mg Lipid Wt, concentration as a function of control” value (Small Intestine) was 143 ± 5%, the “Neutral Lipids, concentration as a function of control” value (Small Intestine) was 149 ± 6% and the “Phospholipids, concentration as a function of control” value (Small Intestine) was 119 ± 6%. The “Protein, concentration” value (Small Intestine) was 118 ± 7% and the “Triglycerides, concentration as a function of control” value (Small Intestine) was 130 ± 6%.
